# According to patent US20100087407A1, “USE OF AROMATASE INHIBITORS” (priority 2006, published 2010):
# Legend:
# [1] = postmenopausal breast cancer; cited from earlier work
# endometrium [2] = assay: Examples 1-3: endometrial thinning with loading dose and maintenance dose; assay type: in vivo, women; details: loading dose on first day, then maintenance dose for 3-6 days, any time of cycle
# Description: Five different groups of pre-menopausal women are treated based on where there are in the menstrual cycle. Starting days (i.e., the first day of dosing) for the five groups are on Cycle Days 2-5, 6-9, 10-13, 14-17, and 18-21 for Groups 1-5, respectively.
# A thin endometrium is defined as having a double-wall thickness not greater than 4 mm on transvaginal ultrasound. […] The following table summarizes the dose day and evaluation times.
# endometrium [3] = details: small randomized study of progestogens; cited from earlier work
# endometrium [4] = details: prior to hysteroscopic surgery; cited from earlier work
SMILES,effect on endometrial thickness (endometrium [3]),also measured
CCC1(c2ccc(N)cc2)CCC(=O)NC1=O (stereo not drawn) [aminoglutethimide],–,"patients stopping treatment because of side effects (lethargy, rashes, nausea, fever) [1]: 8-15%"
CC(C)(C#N)c1cc(Cn2cncn2)cc(C(C)(C)C#N)c1 [anastrozole],–,endometrial thinning prior to ablation (endometrium [2]): able to maintain a thin endometrium or to induce adequate thinning
CC(=O)O[C@]1(C(C)=O)CC[C@H]2[C@@H]3C=C(Cl)C4=CC(=O)[C@@H]5C[C@@H]5[C@]4(C)[C@H]3CC[C@@]21C [cyproterone acetate],significant reduction,–
C#C[C@]1(O)CC[C@H]2[C@@H]3CCC4=Cc5oncc5C[C@]4(C)[C@H]3CC[C@@]21C [danazol],–,endometrial thinning (endometrium [4]): satisfactory results
CC(=O)O[C@]1(C(C)=O)CC[C@H]2[C@@H]3C[C@H](C)C4=CC(=O)CC[C@]4(C)[C@H]3CC[C@@]21C [medroxyprogesterone acetate],no effect,–
C#C[C@]1(O)CC[C@H]2[C@@H]3CCC4=CC(=O)CC[C@@H]4[C@H]3CC[C@@]21C [norethisterone],no effect,–
